Results on one substance are retold here after US8940310B2, “Methods of treatment using TLR7 and/or TLR9 inhibitors” (Dynavax Technologies Corporation, priority 2010, dated 2015).

The target in this series is T1, TLR9 (Homo sapiens, UniProt Q9NR96).
T1 construct: the primary human PDCs were thus stimulated with HSV-1 (4 MOI) or influenza (2 MOI); endogenous in cells; host or cells: primary human plasmacytoid dendritic cells from blood donors
T1 sequence (Q9NR96 26-1032): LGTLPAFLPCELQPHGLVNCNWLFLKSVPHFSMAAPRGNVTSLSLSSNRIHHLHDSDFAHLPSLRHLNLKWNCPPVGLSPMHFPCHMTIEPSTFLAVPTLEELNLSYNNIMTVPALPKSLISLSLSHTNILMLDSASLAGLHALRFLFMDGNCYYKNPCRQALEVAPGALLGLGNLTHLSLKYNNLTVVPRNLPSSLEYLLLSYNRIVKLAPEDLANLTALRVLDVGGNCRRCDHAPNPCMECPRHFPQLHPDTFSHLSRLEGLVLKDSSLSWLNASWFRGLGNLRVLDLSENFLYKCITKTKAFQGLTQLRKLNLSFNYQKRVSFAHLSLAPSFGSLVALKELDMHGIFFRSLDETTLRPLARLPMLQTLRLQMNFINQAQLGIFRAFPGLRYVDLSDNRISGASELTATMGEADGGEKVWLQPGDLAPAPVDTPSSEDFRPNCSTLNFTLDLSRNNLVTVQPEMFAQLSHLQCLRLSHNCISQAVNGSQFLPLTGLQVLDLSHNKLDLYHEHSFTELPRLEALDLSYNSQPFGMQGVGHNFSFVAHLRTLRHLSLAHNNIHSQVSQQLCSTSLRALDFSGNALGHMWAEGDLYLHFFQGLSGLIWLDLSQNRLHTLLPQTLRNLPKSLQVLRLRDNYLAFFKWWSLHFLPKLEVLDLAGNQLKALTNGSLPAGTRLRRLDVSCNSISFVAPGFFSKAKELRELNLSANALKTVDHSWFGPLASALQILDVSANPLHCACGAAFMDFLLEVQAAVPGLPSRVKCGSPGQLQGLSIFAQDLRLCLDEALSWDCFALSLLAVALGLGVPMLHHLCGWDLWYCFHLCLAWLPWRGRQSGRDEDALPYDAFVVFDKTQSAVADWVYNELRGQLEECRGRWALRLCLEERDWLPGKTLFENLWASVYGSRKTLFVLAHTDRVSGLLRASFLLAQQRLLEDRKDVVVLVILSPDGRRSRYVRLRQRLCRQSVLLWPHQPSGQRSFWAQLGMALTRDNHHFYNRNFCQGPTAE
The series can be described thus: Human PDC stimulated with HSV-1 (TLR9 ligand), IFN-α. The class given is cell-based. To be noted: TLR9L HSV. The source says: Human PDCs infected with herpes simplex virus type 1 (HSV-1 KOS strain) respond by producing IFN-α and this response is dependent on TLR-9 signaling. Human PDCs infected with influenza virus (FLU H1N1 strain, A/PR/8/34 from a patient in Puerto Rico 1934; See ATCC catalog VR-95) also respond by producing IFN-α, however, this response is dependent on TLR-7 signaling and independent of TLR-9. The effect of IRPs on innate immune response cytokine production by infected cells was examined. In a dose-dependent manner, the primary human PDCs were thus stimulated with HSV-1 (4 MOI) or influenza (2 MOI), either alone or in the presence of the tested IRPs. At 24 hours, supernatants were collected and cytokine levels, IFN-alpha, were measured by immunoassay.
Human PDCs from 16-18 donors were purified and infected with influenza virus (strain PR/8) or HSV-1. HSV was used at 4 MOI, while the influenza virus was used at 2 MOI. The amount of IFN-α produced by the cells was measured and compared to the amount of virus used for infection.
To further investigate the effectiveness of IRPs on TLR7 and TLR9 activation, various IRPs or control samples were assayed for immunoregulatory activity on human PDCs as described in Example 8.

pIC50: −log10 of the molar value. [I] = hypoxanthine (inosine)

As usually defined, the pIC50 is −log10 of the IC50, conventionally taken in molar units. As usually defined, the IC90 is the point of the concentration-response curve where the effect stands at 90%. Low readings indicate greater potency, high ones weaker potency.

Consider “5′-TGC TCC TGG AGI GGT TGT-3′ (DNA TGCTCCTGGAGNGGTTGT; DNA, [I] at 12, backbone and methylation of C not given here) [SEQ ID NO:73]”, for which the pIC50 was 7.60 and the 90% effect level (IC90) was put at 99 nM.
